# Measurements reported in US10844044B2 (Vanderbilt University, priority 2018, dated 2020).
# Where two headings read alike, the source gives them in different places.
# Molecular target: WDR5 (Homo sapiens (Human), UniProt P61964)
# Experiment: TR-FRET binding assay (displacement of 10mer-Thr-FAM probe from WDR5)
# [1] = read-out: Ki for Inhibition of WDR5 by TR-FRET assay, TR-FRET, 10mer-Thr-FAM probe, WDR5-His tag 2 nM, pH 7.0
# [2] = read-out: Ki for Inhibition of WDR5 by TR-FRET assay
Compound,Ki [1],other results
"Cc1cc([C@@H](NC(=O)c2cc(Cn3ccn(C)c3=N)cc(-c3ncnc4c3CCCC4)c2)C2CC2)ccc1F [Example 94, (S)—N-(Cyclopropyl(4-fluoro-3-methylphenyl)methyl)-3-((2-imino-3-methyl-2,3-dihydro-1H-imidazol-1-yl)methyl)-5-(5,6,7,8-tetrahydroquinazolin-4-yl)benzamide]",36 nM,–
"Cc1cc(CNC(=O)c2cc(Cn3ccn(C)c3=N)cc(-c3c[nH]c(=O)cc3C)c2)ccc1Cl [Example 83, N-(4-Chloro-3-methylbenzyl)-3-((2-imino-3-methyl-2,3-dihydro-1H-imidazol-1-yl)methyl)-5-(4-methyl-6-oxo-1,6-dihydropyridin-3-yl)benzamide]",7.1 nM,–
"Cc1cc([C@@H](NC(=O)c2cc(Cn3ccn(C4CC4)c3=N)cc(-c3cn(CC(C)C)nc3C(F)(F)F)c2)C2CC2)ccc1F [Example 163, (S)—N-(Cyclopropyl(4-fluoro-3-methylphenyl)methyl)-3-((3-cyclopropyl-2-imino-2,3-dihydro-1H-imidazol-1-yl)methyl)-5-(1-isobutyl-3-(trifluoromethyl)-1H-pyrazol-4-yl)benzamide]",0.68 nM,–
"Cc1cc([C@@H](NC(=O)c2cc(CN3CCCOC3=N)cc(-c3cccnc3C(F)(F)F)c2)C2CC2)ccc1F [Example 266, (S)—N-(Cyclopropyl(4-fluoro-3-methylphenyl)methyl)-3-((2-imino-1,3-oxazinan-3-yl)methyl)-5-(2-(trifluoromethyl)pyridin-3-yl)benzamide]",16 nM,–
"COc1cc(-c2cc(Cn3ccn(C)c3=N)cc(C(=O)NCc3ccc(Cl)c(Cl)c3)c2)c(F)cn1 [Example 184, N-(3,4-dichlorobenzyl)-3-(5-fluoro-2-methoxypyridin-4-yl)-5-((2-imino-3-methyl-2,3-dihydro-1H-imidazol-1-yl)methyl)benzamide]",0.56 nM,–
"COc1ccnc(CNC(=O)c2cc(Cn3ccn(C)c3=N)cc(-c3ccc(F)cc3C)n2)c1 [Example 357, 6-(4-Fluoro-2-methylphenyl)-4-((2-imino-3-methyl-2,3-dihydro-1H-imidazol-1-yl)methyl)-N-((4-methoxypyridin-2-yl)methyl)picolinamide]",1.3 nM,–
"CCn1cc(-c2cc(Cn3ccn(C)c3=N)cc(C(=O)N[C@H](c3ccc(F)c(C)c3)C3CC3)c2)c(C)n1 [Example 225, (S)—N-(Cyclopropyl(4-fluoro-3-methylphenyl)methyl)-3-(1-ethyl-3-methyl-1H-pyrazol-4-yl)-5-((2-imino-3-methyl-2,3-dihydro-1H-imidazol-1-yl)methyl)benzamide]",< 0.1 nM,–
"Cc1cc(CNC(=O)c2cc(Cn3ccn(C)c3=N)cc(-c3ccc(=O)[nH]c3C)c2)ccc1Cl [Example 80, N-(4-Chloro-3-methylbenzyl)-3-((2-imino-3-methyl-2,3-dihydro-1H-imidazol-1-yl)methyl)-5-(2-methyl-6-oxo-1,6-dihydropyridin-3-yl)benzamide]",20 nM,–
"Cc1cc(F)ccc1-c1cc(Cn2ccn(C)c2=N)cc(C(=O)N[C@H](C)c2ccc(F)c(C(F)(F)F)c2)n1 [Example 360, (R)-6-(4-fluoro-2-methylphenyl)-N-(1-(4-fluoro-3-(trifluoromethyl)phenyl)ethyl)-4-((2-imino-3-methyl-2,3-dihydro-1H-imidazol-1-yl)methyl)picolinamide]",1 nM,–
"Cc1cc(F)ccc1-c1cc(Cn2ccn(C)c2=N)cc(C(=O)NCc2ccc(Cl)c(F)c2)n1 [Example 359, N-(4-Chloro-3-fluorobenzyl)-6-(4-fluoro-2-methylphenyl)-4-((2-imino-3-methyl-2,3-dihydro-1H-imidazol-1-yl)methyl)picolinamide]",8.7 nM,–
"Cn1ccn(Cc2cc(OC(F)(F)F)cc(C(=O)N[C@@H](CC(=O)O)c3cccc(C(F)(F)F)c3)c2)c1=N [Example 146, (S)-3-(3-((2-Imino-3-methyl-2,3-dihydro-1H-imidazol-1-yl)methyl)-5-(trifluoromethoxy)benzamido)-3-(3-(trifluoromethyl)phenyl)propanoic acid]",10 nM,–
"COc1ccnc(CNC(=O)c2cc(Cn3ccn(C)c3=N)cc(-c3cc(C)cnc3OC)c2)c1 [Example 4, 3-((2-imino-3-methyl-2,3-dihydro-1H-imidazol-1-yl)methyl)-5-(2-methoxy-5-methylpyridin-3-yl)-N-((4-methoxypyridin-2-yl)methyl)benzamide]",0.34 nM,–
"Cc1cc([C@@H](NC(=O)c2cc(Cn3ccn(-c4ccccc4)c3=N)cc(-c3cccnc3C(F)(F)F)c2)C2CC2)ccc1F [Example 137, (S)—N-(Cyclopropyl(4-fluoro-3-methylphenyl)methyl)-3-((2-imino-3-phenyl-2,3-dihydro-1H-imidazol-1-yl)methyl)-5-(2-(trifluoromethyl)pyridin-3-yl)benzamide]",–,Ki [2]: > 33 nM
"Cn1ccn(Cc2cc(C(=O)N[C@@H](CC(=O)O)c3cccc(C(F)(F)F)c3)c(F)c(-c3ccc(F)cc3C(F)(F)F)c2)c1=N [Example 148, (S)-3-(2,4′-Difluoro-5-((2-imino-3-methyl-2,3-dihydro-1H-imidazol-1-yl)methyl)-2′-(trifluoromethyl)-[1,1′-biphenyl]-3-carboxamido)-3-(3-(trifluoromethyl)phenyl)propanoic acid]",0.29 nM,–
"COc1ccnc([C@H](NC(=O)c2cc(Cn3ccn(C)c3=N)cc(-c3ccc(F)cc3C)c2)C2CC2)c1 [Example 93, (R)—N-(Cyclopropyl(4-methoxypyridin-2-yl)methyl)-4′-fluoro-5-((2-imino-3-methyl-2,3-dihydro-1H-imidazol-1-yl)methyl)-2′-methyl-[1,1′-biphenyl]-3-carboxamide]",1.9 nM,–
"Cc1cc([C@@H](NC(=O)c2cc(CN3CCSC3=N)cc(-c3cn(C)nc3C(F)(F)F)c2)C2CC2)ncc1F [Example 326, (S)—N-(Cyclopropyl(5-fluoro-4-methylpyridin-2-yl)methyl)-3-((2-iminothiazolidin-3-yl)methyl)-5-(1-methyl-3-(trifluoromethyl)-1H-pyrazol-4-yl)benzamide]",–,Ki [2]: < 0.1 nM
"Cc1cc([C@@H](NC(=O)c2cc(Cn3ccoc3=N)cc(-c3cncnc3C(F)(F)F)c2)C2CC2)ccc1F [Example 255, (S)—N-(Cyclopropyl(4-fluoro-3-methylphenyl)methyl)-3-((2-iminooxazol-3(2H)-yl)methyl)-5-(4-(trifluoromethyl)pyrimidin-5-yl)benzamide]",0.62 nM,–
Cc1ccnc(C(NC(=O)c2cc(Cn3ccn(C)c3=N)cc(-c3ccnc(C)c3)c2)C2CC2)c1 (stereo not shown) [Example 7],0.8 nM,–
"Cc1ccnc(C(NC(=O)c2cc(Cn3ccn(C)c3=N)cc(-c3ncnc4c3CCCC4)c2)C2CC2)c1 (stereo not shown) [Example 95, N-(Cyclopropyl(4-methylpyridin-2-yl)methyl)-3-((2-imino-3-methyl-2,3-dihydro-1H-imidazol-1-yl)methyl)-5-(5,6,7,8-tetrahydroquinazolin-4-yl)benzamide]",–,Ki [2]: 20 nM
"Cc1ccnc(C(NC(=O)c2cc(Cn3ccn(C)c3=N)cc(-c3cnccc3C)c2)C2CC2)c1 (stereo not shown) [Example 15, N-(Cyclopropyl(4-methylpyridin-2-yl)methyl)-3-((2-imino-3-methyl-2,3-dihydro-1H-imidazol-1-yl)methyl)-5-(4-methylpyridin-3-yl)benzamide]",2.7 nM,–
"COc1cc(CNC(=O)c2cc(Cn3ccn(C)c3=N)cc(-c3ccc(F)cc3C(N)=O)c2)cc(OC)c1 [Example 152, N3′-(3,5-dimethoxybenzyl)-4-fluoro-5′-((2-imino-3-methyl-2,3-dihydro-1H-imidazol-1-yl)methyl)-[1,1′-biphenyl]-2,3′-dicarboxamide]",–,Ki: 8.9 nM
"Cc1cc(F)ccc1-c1cc(Cn2ccn(C)c2=N)cc(C(=O)N[C@@H](c2ccc(F)c(C)n2)C2CC2)c1 [Example 167, (R)—N-(Cyclopropyl(5-fluoro-6-methylpyridin-2-yl)methyl)-4′-fluoro-5-((2-imino-3-methyl-2,3-dihydro-1H-imidazol-1-yl)methyl)-2′-methyl-[1,1′-biphenyl]-3-carboxamide]",0.21 nM,–
"COc1cnccc1-c1cc(Cn2ccn(C)c2=N)cc(C(=O)NCc2ccc(Cl)c(C)c2)c1 [Example 20, N-(4-Chloro-3-methylbenzyl)-3-((2-imino-3-methyl-2,3-dihydro-1H-imidazol-1-yl)methyl)-5-(3-methoxypyridin-4-yl)benzamide]",2.5 nM,–
"C[C@H](NC(=O)c1cc(Cn2ccn(C)c2=N)cc(-c2cccnc2C(F)(F)F)c1)c1ncc(F)cn1 [Example 130, (S)—N-(1-(5-Fluoropyrimidin-2-yl)ethyl)-3-((2-imino-3-methyl-2,3-dihydro-1H-imidazol-1-yl)methyl)-5-(2-(trifluoromethyl)pyridin-3-yl)benzamide]",> 33 nM,–
"Cc1cc(-c2cc(Cn3ccn(C)c3=N)cc(C(=O)NCc3ncc(Cl)cn3)c2)ccn1 [Example 51, N-((5-Chloropyrimidin-2-yl)methyl)-3-((2-imino-3-methyl-2,3-dihydro-1H-imidazol-1-yl)methyl)-5-(2-methylpyridin-4-yl)benzamide]",17 nM,–
"Cc1cc([C@@H](NC(=O)c2cc(CN3CCCSC3=N)cc(-c3cccnc3C(F)(F)F)c2)C2CC2)ccc1F [Example 315, (S)—N-(Cyclopropyl(4-fluoro-3-methylphenyl)methyl)-3-((2-imino-1,3-thiazinan-3-yl)methyl)-5-(2-(trifluoromethyl)pyridin-3-yl)benzamide]",1 nM,–
"COc1cccc(-c2cc(Cn3ccn(C)c3=N)cc(C(=O)NCc3ccc(Cl)c(Cl)c3)c2)n1 [Example 169, N-(3,4-Dichlorobenzyl)-3-((2-imino-3-methyl-2,3-dihydro-1H-imidazol-1-yl)methyl)-5-(6-methoxypyridin-2-yl)benzamide]",–,Ki: 23 nM
"Cc1cc([C@@H](NC(=O)c2cc(Cn3c(C)coc3=N)cc(-c3cccnc3C(F)(F)F)c2)C2CC2)ccc1F [Example 252, (S)—N-(Cyclopropyl(4-fluoro-3-methylphenyl)methyl)-3-((2-imino-4-methyloxazol-3(2H)-yl)methyl)-5-(2-(trifluoromethyl)pyridin-3-yl)benzamide]",–,Ki [2]: 21 nM
